Consider 33 compounds from patent US10597366B2, “Aryl ethers and uses thereof” (Peloton Therapeutics, Inc., priority 2013, dated 2020).

Assay [1] concerns VEGFA concentration in medium of 786-O cells. In words: VEGF ELISA Assay. The class given is cell-based. As to conditions: Homo sapiens. The protocol:
Each concentration had duplicated wells. About 20 hours later, medium was removed by suction and each well was supplied with 180 μL of growth medium. About 20 μl freshly-made 10× compound stocks were added to each well. […] The EC50 was calculated by GraphPad Prism using the dose-response-inhibition (four parameter) equation. The cell seeded plate was then subjected to CellTiter-Glo luminescence cell viability assay (Promega) by adding 50 μL of Celltiter Glo reagent into each well and shaking the plate for 8 minutes at 550 rpm (Thermomixer R, Eppendorf) then read luminescence signal in plate reader (3 second delay, 0.5 second/well integration time, Synergy 2 multi Detection Microplate reader) immediately.
On the technique in general: In an ELISA, binding on a coated surface is turned into a signal by an enzyme label.

The test system of assay [2] is 786-O-Hif-Luc cells (luciferase gene driven by multiple HIF responsive elements). In words: Luciferase Assay. The note with it: 24 h, read-out: Mean Luciferease EC50. The class given is cell-based. The protocol:
A pool of infected cells were then selected against 2 μg/mL of puromycin (P8833, Sigma) for 10 days followed by limited dilution to select single clones.
Each concentration was tested in triplicate. After about 24 hours, luciferase activity was determined using ONE-Glo Luciferase Assay Reagent (E6110, Promega) following the manufacturer's recommended procedure. EC50 were calculated by using Dotmatics software.

For assay [3], the system named is HIF-2α HIS TAG-PASB Domain. In words: HIF-2α Scintillation Proximity Assay (SPA). The class given is binding. As to conditions: compounds listed by structure and IUPAC name. The protocol: The percent inhibition was determined and IC50 values were calculated using the Dotmatics system based on the following equation: % inhibition=[(high control sample)/(high control low control)]×100.
A general note: SPA uses beads or plates that emit light when radiolabelled molecules are held near them.

The mark [4] stands for this setting: 786-0, 786-O cells, read-out: Mean VEGF ELISA EC50.
[5] abbreviates: 786-O-Hif-Luc cells, about 24 hours.
The mark [6] stands for this setting: 786-0, read-out: Mean VEGF ELISA EC50.

Where two headings read alike, the source gives them in different places. Some results are limits rather than exact numbers.

Regarding `N#Cc1cc(F)cc(Oc2ccc(S(=N)(=O)CF)c3c2CC(F)(F)[C@H]3O)c1` (single isomer, unassigned) [Compound 274], the EC50 in assay [1] (setting [4]) is 1440 nM; in assay [2] (setting [5]) it was 190 nM.
The like results for `CS(=O)(=NC#N)c1ccc(Oc2cc(F)cc(C#N)c2)c2c1[C@H](O)C(F)(F)[C@@H]2F` (single isomer, unassigned) [Compound 316] were, in that order, 17 nM and 12 nM.
In assay [3], `CC(=O)c1ccc(Oc2cc(F)cc(Cl)c2)c(Br)c1C#N` [6-acetyl-2-bromo-3-(3-chloro-5-fluoro-phenoxy)benzonitrile] showed a half-maximal inhibitory concentration (IC50) of more than 100000 nM.
The same measure, in the same setting: next, `O=S(=O)(c1ccc(Oc2cccn3cnnc23)c2c1[C@H](O)CC2)C(F)(F)F` [(1R)-4-([1,2,4]triazolo[4,3-a]pyridin-8-yloxy)-7-(trifluoromethylsulfonyl)indan-1-ol]: more than 100000 nM; `CS(=O)(=O)c1cccc(Oc2ccc(S(=O)(=O)C(F)(F)F)c3c2CC(F)(F)[C@H]3O)c1` [(1S)-2,2-difluoro-4-(3-methylsulfonylphenoxy)-7-(trifluoromethylsulfonyl)indan-1-ol]: more than 100000 nM; `CNC(=O)/C=C/c1c(S(=O)(=O)C(F)(F)F)ccc(Oc2cc(F)cc(C#N)c2)c1C` [(E)-3-[3-(3-cyano-5-fluoro-phenoxy)-2-methyl-6-(trifluoromethylsulfonyl)phenyl]-N-methyl-prop-2-enamide]: more than 100000 nM.
Still for that read-out and setting: next, `Cc1c(Oc2cc(F)cc(C#N)c2)ccc(S(=O)(=O)C(F)(F)F)c1/C=C/C(N)=O` [(E)-3-[3-(3-cyano-5-fluoro-phenoxy)-2-methyl-6-(trifluoromethylsulfonyl)phenyl]prop-2-enamide]: more than 100000 nM; `Cc1c(Oc2cc(F)cc(C#N)c2)ccc(S(=O)(=O)C(F)(F)F)c1/C=C/C(=O)O` [(E)-3-[3-(3-cyano-5-fluoro-phenoxy)-2-methyl-6-(trifluoromethylsulfonyl)phenyl]prop-2-enoic acid]: more than 100000 nM.
`O=S(=O)(c1ccc(Oc2cc(F)cc(Cl)c2)c2c1[C@H](O)CC2)C(F)F` [Compound 1, (R)-4-(3-chloro-5-fluorophenoxy)-7-((difluoromethyl)sulfonyl)-2,3-dihydro-1H-inden-1-ol]: the EC50 in assay [1] (setting [6]) came out at 250 nM.
Take `O=S(=O)(c1ccc(Oc2cc(F)cc(F)c2)c2c1[C@H](O)CC2)C(F)F` [Compound 2, (R)-7-((Difluoromethyl)sulfonyl)-4-(3,5-difluorophenoxy)-2,3-dihydro-1H-inden-1-ol]: the concentration for a half-maximal effect (EC50) in assay [1] (setting [4]) was 62 nM; in assay [2] (setting [5]), 70 nM.
Taken in the same sequence, the figures for `O=S(=O)(c1ccc(Oc2cc(F)cc(Cl)c2)c2c1C(O)C(F)(F)C2)C(F)F` (centres unmarked) [Compound 8, 4-(3-chloro-5-fluoro-phenoxy)-7-(difluoromethylsulfonyl)-2,2-difluoro-indan-1-ol] were 33 nM and 17 nM.
For `O=S(=O)(c1ccc(Oc2cc(F)cc(F)c2)c2c1C(O)C(F)(F)C2)C(F)F` (centres unmarked) [Compound 9, 7-(difluoromethylsulfonyl)-4-(3,5-difluorophenoxy)-2,2-difluoro-indan-1-ol], the EC50 in assay [1] (setting [4]) came to 6 nM; in assay [2] (setting [5]), 9 nM.
Consider `O=S(=O)(c1ccc(Oc2cc(F)cc(Cl)c2)c2c1C(O)CC2)C(F)F` (centres unmarked) [Compound 17, 4-(3-chloro-5-fluorophenoxy)-7-((difluoromethyl)sulfonyl)-2,3-dihydro-1H-inden-1-ol], for which, in assay [1] (setting [6]), the EC50 turned out to be 160 nM.
Consider `Cc1c(S(=O)(=O)C(F)F)ccc(Oc2cc(F)cc(F)c2)c1C#N` [Compound 34, 3-((Difluoromethyl)sulfonyl)-6-(3,5-difluorophenoxy)-2-methylbenzonitrile], for which the 50% effective concentration (EC50) in assay [1] (setting [4]) is 460 nM; in assay [2] (setting [5]), 520 nM.
As for `O=S(=O)(c1ccc(Oc2cc(F)cc(Cl)c2)c(Cl)c1CO)C(F)F` [Compound 41, (2-Chloro-3-(3-chloro-5-fluorophenoxy)-6-((difluoromethyl)sulfonyl)phenyl)methanol], the EC50 came out at 570 nM in assay [1] (setting [6]) and 400 nM in assay [2].
Consider `O=S(=O)(c1ccc(Oc2cc(F)cc(F)c2)c2c1[C@H](O)CC2)C(F)(F)F` [Compound 55, (R)-4-(3,5-Difluorophenoxy)-7-((trifluoromethyl)sulfonyl)-2,3-dihydro-1H-inden-1-ol], for which the half-maximal effective concentration (EC50) in assay [1] (setting [4]) was determined as 35 nM; in assay [2] (setting [5]) it was 32 nM.
The like results for `O=S(=O)(CF)c1ccc(Oc2cc(F)cc(F)c2)c2c1[C@H](O)CC2` [Compound 60, (R)-4-(3,5-Difluorophenoxy)-7-((fluoromethyl)sulfonyl)-2,3-dihydro-1H-inden-1-ol] were, in that order, 40 nM and 66 nM.
The like results for `O=S(=O)(CF)c1ccc(Oc2cc(F)cc(F)c2)c2c1[C@H](O)C(F)(F)C2` [Compound 64, (S)-4-(3,5-Difluorophenoxy)-2,2-difluoro-7-((fluoromethyl)sulfonyl)-2,3-dihydro-1H-inden-1-ol] were, in that order, 1 nM and 5 nM.
For `N#Cc1ccc(Oc2cc(F)cc(F)c2)c2c1[C@H](O)C(F)(F)C2` [Compound 67, (S)-7-(3,5-Difluorophenoxy)-2,2-difluoro-3-hydroxy-2,3-dihydro-1H-indene-4-carbonitrile], the concentration for a half-maximal effect (EC50) in assay [1] (setting [6]) worked out at 220 nM.
With `N#Cc1cc(F)cc(Oc2ccc(S(=O)(=O)C(F)F)c(CO)c2Br)c1` [Compound 80, 3-(2-Bromo-4-((difluoromethyl)sulfonyl)-3-(hydroxymethyl)phenoxy)-5-fluorobenzonitrile], the half-maximal effective concentration (EC50) turned out to be 630 nM in assay [1] (setting [4]) and 310 nM in assay [2] (setting [5]).
On to `O=S(=O)(c1ccc(Oc2cc(F)cc(Cl)c2)c(Br)c1CO)C(F)(F)F` [Compound 102, (2-Bromo-3-(3-chloro-5-fluorophenoxy)-6-((trifluoromethyl)sulfonyl)phenyl)methanol], for which the EC50 in assay [1] (setting [4]) was found to be 640 nM.
Turning to `N#Cc1cc(S(=O)(=O)C(F)F)ccc1Oc1cc(F)cc(Cl)c1` [Compound 133, 2-(3-Chloro-5-fluorophenoxy)-5-((difluoromethyl)sulfonyl)benzonitrile], the EC50 in assay [1] (setting [4]) amounted to 1870 nM.
Same read-out and setting: next, `O=S(=O)(c1ccc(Oc2cc(F)cc(Cl)c2)c(Br)c1Cl)C(F)(F)F` [Compound 179, 2-Bromo-3-chloro-1-(3-chloro-5-fluorophenoxy)-4-((trifluoromethyl)sulfonyl)benzene]: 1600 nM; `CS(=O)(=NC#N)c1ccc(Oc2cc(F)cc(C#N)c2)c2c1[C@H](O)C(F)(F)C2` (some centres unmarked) [Compound 240]: 81 nM.
In assay [3], `N#Cc1cc(F)cc(Oc2ccc(/S(CF)=N/C(=O)C(F)(F)F)c3c2CC[C@H]3O)c1` (stereo partly drawn) [N-((R)-7-(3-cyano-5-fluorophenoxy)-3-hydroxy-2,3-dihydro-1H-inden-4-yl)(fluoromethyl)-λ^4-sulfanylidene)-2,2,2-trifluoroacetamide] came in with an IC50 of more than 100000 nM.
On to `CS(=O)(=O)c1ccc(Oc2cc(F)cc(F)c2)c2c1C(NC(=O)c1ccc(F)cc1)C(F)(F)C2` (centres unmarked) [N-[4-(3,5-difluorophenoxy)-2,2-difluoro-7-methylsulfonyl-indan-1-yl]-4-fluoro-benzamide], for which the IC50 in assay [3] is more than 100000 nM.
On the same count and under the same terms, next, `CC(=O)NC1c2c(S(C)(=O)=O)ccc(Oc3cc(F)cc(F)c3)c2CC1(F)F` (centres unmarked) [N-[4-(3,5-difluorophenoxy)-2,2-difluoro-7-methylsulfonyl-indan-1-yl]acetamide]: more than 100000 nM.
Same read-out and setting: as for `CC(C)(C)[S+]([O-])NC1c2c(S(C)(=O)=O)ccc(Oc3cc(F)cc(C#N)c3)c2CC1(F)F` (centres unmarked) [N-[4-(3-cyano-5-fluoro-phenoxy)-2,2-difluoro-7-methylsulfonyl-indan-1-yl]-2-methyl-propane-2-sulfinamide], the figure is more than 100000 nM; as for `O=S(=O)(c1ccc(Oc2cc(F)cc(Cl)c2)c(Cl)c1CNC1CCOC1)C(F)F` (centres unmarked) [N-[[2-chloro-3-(3-chloro-5-fluoro-phenoxy)-6-(difluoromethylsulfonyl)phenyl]methyl]tetra-hydrofuran-3-amine], more than 100000 nM.
Still for that read-out and setting: next, `N=S(=O)(c1ccc(Cl)c(Br)c1Oc1cc(F)cc(Cl)c1)C(F)(F)F` (centres unmarked) [[3-bromo-4-chloro-2-(3-chloro-5-fluoro-phenoxy)phenyl]-imino-oxo-(trifluoromethyl)-λ^6-sulfane]: more than 100000 nM; `Cc1c(Oc2cc(F)cc(C#N)c2)ccc(S(=O)(=O)C(F)(F)F)c1/C=C/C(=O)OCc1ccccc1` [benzyl (E)-3-[3-(3-cyano-5-fluoro-phenoxy)-2-methyl-6-(trifluoromethylsulfonyl)phenyl]prop-2-enoate]: more than 100000 nM; `CCCCOC(=O)/C=C/c1c(S(=O)(=O)C(F)(F)F)ccc(Oc2cc(F)cc(C#N)c2)c1C` [butyl (E)-3-[3-(3-cyano-5-fluoro-phenoxy)-2-methyl-6-(trifluoromethylsulfonyl)phenyl]prop-2-enoate]: more than 100000 nM.
On to `COC(=O)c1cc(F)cc(Oc2ccc(S(=O)(=O)C(F)(F)F)cc2Br)c1` [methyl 3-[2-bromo-4-(trifluoromethylsulfonyl)phenoxy]-5-fluoro-benzoate], for which the half-inhibitory concentration (IC50) in assay [3] was more than 100000 nM.

For orientation: EC50 means the concentration that produces a half-maximal response. For orientation: IC50 means the concentration at which inhibition is half-maximal. Lower therefore signals higher potency.
